Reference: ChEMBL document CHEMBL6078636, “A Spatiotemporally Controlled and Mitochondria-Targeted Prodrug of Hydrogen Sulfide Enables Mild Mitochondrial Uncoupling for the Prevention of Lipid Deposition” (J Med Chem, 2024)
The source made the active and inactive calls. No cut-off for these calls is given here.

Columns and labels:
AML12 [1] = assay: Inhibition of mitochondrial membrane potential in mouse AML12 cells under UV light-irradiation by JC-1 staining based analysis; assay type: functional, cell-based
[2] = Prodrug release in mouse AML12 cells assessed as H2S metabolite release at 10 uM incubated for 4 hrs followed by UV light-irradiation for 1 min by 2-OH-Cou probe based analysis; assay type: ADME, cell-based; details: aml12, 4.017 h, time 241 min
AML12 [3] = assay: Cytotoxicity against mouse AML12 cells pretreated for 24 hrs followed by UV light-irradiation for 1 min by MTT assay; assay type: toxicity, cell-based; details: aml12, 24.02 h, time 1441 min
AML12 [4] = assay: Activation of mitochondrial AMPK signal pathway in palmitic acid-stimulated mouse AML12 cells under light irradiation in presence of AMPK inhibitor by Western blot analysis; assay type: cell-based
AML12 [5] = assay: Induction of H2O2 generation in mitochondria of mouse AML12 cells harboring SQR knockdown under photo-irradiation; assay type: functional
AML12 [6] = assay: Induction of mitochondrial ROS in mouse AML12 cells harboring SQR knockdown under photo-irradiation; assay type: functional, cell-based
AML12 [7] = assay: Induction of mitochondrial uncoupling in oligomycin-treated mouse AML12 cells assessed as decrease in intracellular ATP level incubated for 4 hrs followed by UV light-irradiation for 1 min under photo-irradiation; assay type: functional, cell-based; details: dose <= 10.0 µM, time 241.0 min
AML12 [8] = assay: Induction of mitochondrial ROS via reverse electron transport driven by sulfide quinone oxidoreductase in mouse AML12 cells under photo-irradiation by MitoSOX staining based analysis; assay type: functional, cell-based
AML12 [9] = assay: Induction of H2O2 generation in mitochondria of mouse AML12 cells under photo-irradiation; assay type: functional
AML12 [10] = assay: Inhibition of excessive lipid deposition in mouse AML12 cells assessed as decrease in palmitic acid-induced lipid content by Oil Red O staining based analysis; assay type: functional, cell-based; details: dose 1-10 µM
AML12 [11] = assay: Induction of mitochondrial ROS via reverse electron transport driven by sulfide quinone oxidoreductase in mouse AML12 cells assessed as decrease in ratio of NAD+/NADH levels under photo-irradiation in presence of rotenone; assay type: functional, cell-based
AML12 [12] = assay: Activation of mitochondrial AMPK in mouse AML12 cells harboring SQR knockdown assessed as increase in pMFF level under light irradiation at 1 to 10 uM by Western blot analysis; assay type: cell-based; details: dose 1-10 µM
AML12 [13] = assay: Inhibition of mitochondrial membrane potential in mouse AML12 cells under UV light-irradiation measured for 30 mins by TMRE staining based analysis; assay type: functional, cell-based
[14] = Prodrug release in mouse AML12 cells assessed as H2S metabolite release at 1 to 10 uM incubated for 4 hrs followed by UV light-irradiation for 1 min by 2-OH-Cou probe based analysis; assay type: ADME, cell-based; details: aml12, 4.017 h, dose 1-10 µM, time 241 min
AML12 [15] = assay: Activation of mitochondrial AMPK signal pathway in palmitic acid-stimulated mouse AML12 cells assessed as increase in pACC level under light irradiation at 1 to 10 uM by Western blot analysis; assay type: cell-based; details: filed as activator, dose 1-10 µM
[16] = Prodrug conversion in mouse AML12 cells assessed as H2S metabolite release at 1 to 10 uM incubated for 4 hrs followed by UV light-irradiation for 1 min by WSP-5 probe based analysis; assay type: ADME, cell-based; details: aml12, 4.017 h, dose 1-10 µM, time 241 min
AML12 [17] = assay: Activation of mitochondrial AMPK in mouse AML12 cells assessed as increase in pMFF level under light irradiation upto 10 uM by Western blot analysis; assay type: cell-based; details: filed as activator
AML12 [18] = assay: Inhibition of mitochondrial membrane potential in mouse AML12 cells under UV light-irradiation measured after 24 hrs by TMRE staining based analysis; assay type: functional, cell-based
AML12 [19] = assay: Activation of mitochondrial AMPK in mouse AML12 cells assessed as increase in pACC level under light irradiation by Western blot analysis; assay type: cell-based; details: filed as activator, dose <= 10.0 µM
AML12 [20] = assay: Inhibition of excessive lipid deposition in mouse AML12 cells assessed as decrease in palmitic acid-induced total triglycerides at 1 to 10 uM by Oil Red O staining based analysis; assay type: functional, cell-based; details: dose 1-10 µM
AML12 [21] = assay: Induction of mitochondrial ROS via reverse electron transport driven by sulfide quinone oxidoreductase in mouse AML12 cells assessed as decrease in ratio of NAD+/NADH levels under photo-irradiation; assay type: functional, cell-based
[22] = Prodrug conversion in mouse AML12 cells assessed as H2S metabolite release at 10 uM incubated for 4 hrs followed by UV light-irradiation for 1 min by […] based analysis; assay type: ADME, cell-based; details: aml12, 4 h
AML12 [23] = assay: Inhibition of excessive lipid deposition in mouse AML12 cells assessed as decrease in palmitic acid-induced total cholesterol at 1 to 10 uM by Oil Red O staining based analysis; assay type: functional, cell-based; details: dose 1-10 µM
AML12 [24] = assay: Activation of mitochondrial AMPK in mouse AML12 cells assessed as increase in pMFF level under light irradiation at 1 to 10 uM in presence of rotenone by Western blot analysis; assay type: cell-based; details: dose 1-10 µM
AML12 [25] = assay: Activation of mitochondrial AMPK phosphorylation in mouse AML12 cells under light irradiation by Western blot analysis; assay type: cell-based; details: filed as activator, dose <= 10.0 µM
AML12 [26] = assay: Induction of mitochondrial ROS via reverse electron transport driven by sulfide quinone oxidoreductase in mouse AML12 cells assessed as increase in ratio of CoQH2/CoQ levels under photo-irradiation; assay type: functional, cell-based
AML12 [27] = assay: Induction of mitochondrial uncoupling in oligomycin-treated mouse AML12 cells assessed as increase in OCR level at 10 uM incubated for 4 hrs followed by UV light-irradiation for 1 min under photo-irradiation; assay type: functional, cell-based; details: time 241.0 min
[28] = Drug uptake in mouse AML12 cells at 10 uM incubated for 4 hrs followed by UV light-irradiation for 1 min by WSP-5 probe based analysis; assay type: ADME, cell-based; details: aml12, 4.017 h, time 241 min
AML12 [29] = assay: Inhibition of excessive lipid deposition in mouse AML12 cells assessed as decrease in palmitic acid-induced free fatty acid at 1 to 10 uM by Oil Red O staining based analysis; assay type: functional, cell-based; details: dose 1-10 µM
[30] = Prodrug conversion assessed as H2S metabolite release upto 100 uM under photo-irradiation by methylene blue dye based analysis; assay type: ADME
[31] = Prodrug conversion in mouse AML12 cells assessed as H2S metabolite release at 10 uM incubated for 4 hrs followed by UV light-irradiation for 1 min by WSP-5 probe based analysis; assay type: ADME, cell-based; details: aml12, 4.017 h, time 241 min

SMILES: Cc1cc(C)c(C(C)(C)CC(=O)S)c(OC(=O)OCc2cc3ccc(OCc4ccccc4[N+](=O)[O-])cc3oc2=O)c1
- inhibition (AML12 [1]): inactive
- Drug metabolism [2]: metabolite_notdetected
- Activity (AML12 [3]): Non-toxic

SMILES: Cc1cc(C)c(C(C)(C)CC(=O)S)c(OC(=O)OCc2cc3ccc(OCc4cc(OCCCC[P+](c5ccccc5)(c5ccccc5)c5ccccc5)ccc4[N+](=O)[O-])cc3oc2=O)c1
- inhibition (AML12 [1]): inactive
- Activity (AML12 [4]): inactive
- Activity (AML12 [5]): Active
- Drug metabolism [2]: metabolite_detected
- Activity (AML12 [6]): Active
- Activity (AML12 [7]): Dose-dependent-effect; Activity Superior To M2, Ap39, Adt-Oh
- Activity (AML12 [8]): Active
- Activity (AML12 [9]): Active
- inhibition (AML12 [10]): Dose-dependent-effect; Exhibited As More Effective Than Ap39 And Adt-Oh
- Activity (AML12 [11]): inactive
- Activity (AML12 [12]): inactive
- inhibition (AML12 [13]): Active
- Drug metabolism [14]: metabolite_detected
- Activity (AML12 [15]): Active; Exhibited More Potency Than Ap39 And Adt-Oh
- Drug metabolism [16]: metabolite_detected
- Activity (AML12 [17]): Active
- inhibition (AML12 [18]): inactive
- Activity (AML12 [19]): Dose-dependent-effect; Exhibited More Potency Than Ap39 And Adt-Oh
- Activity (AML12 [3]): Non-toxic
- inhibition (AML12 [20]): Active
- Activity (AML12 [21]): Active
- Drug metabolism [22]: metabolite_detected
- inhibition (AML12 [23]): Active
- Activity (AML12 [24]): inactive
- Activity (AML12 [25]): Dose-dependent-effect; Exhibited More Potency Than Ap39 And Adt-Oh
- Activity (AML12 [26]): Active
- Activity (AML12 [27]): Active
- Drug uptake [28]: 100%
- inhibition (AML12 [29]): Active
- Activity [30]: Active

SMILES: Oc1ccc(-c2cc(=S)ss2)cc1
- inhibition (AML12 [1]): inactive

SMILES: O=C(CCCCCCCCC[P+](c1ccccc1)(c1ccccc1)c1ccccc1)Oc1ccc(-c2cc(=S)ss2)cc1.[Br-]
- inhibition (AML12 [1]): inactive
- Drug metabolism [31]: metabolite_detected
